Consider 13 molecules from patent publication US9999622B2, “Pyrazolothiazole compound and medicine comprising same” (NIPPON SHINYAKU CO., LTD., priority 2014, dated 2018).

For one assay, the target named is T1, JAK2 (Homo sapiens, UniProt O60674).
T1 construct: purchased Carna Biosciences, Inc
The experiment in a line: JAK tyrosine kinase inhibitory activity in the presence of 1 mM ATP (ELISA), JAK2. It is filed as biochemical. Put shortly:
(§1)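 Recombinant kinase (7.5 nM JAK1; 0.75 nM JAK2, JAK3 working dilutions) reacted 1 h at 30 °C with 1 mM ATP in Tris-HCl pH 7.5, Tween-20, DTT, on streptavidin plates. Phosphotyrosine detected by HRP anti-pTyr antibody ELISA, TMB absorbance at 450 nm; duplicate wells, DMSO as negative control.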
Background: An ELISA detects its analyte on a solid surface through an enzyme-linked reagent.

The next assay has as its target T2, JAK3 (Homo sapiens, UniProt P52333).
T2 construct: purchased Carna Biosciences, Inc
T2 sequence (P52333 1-1124): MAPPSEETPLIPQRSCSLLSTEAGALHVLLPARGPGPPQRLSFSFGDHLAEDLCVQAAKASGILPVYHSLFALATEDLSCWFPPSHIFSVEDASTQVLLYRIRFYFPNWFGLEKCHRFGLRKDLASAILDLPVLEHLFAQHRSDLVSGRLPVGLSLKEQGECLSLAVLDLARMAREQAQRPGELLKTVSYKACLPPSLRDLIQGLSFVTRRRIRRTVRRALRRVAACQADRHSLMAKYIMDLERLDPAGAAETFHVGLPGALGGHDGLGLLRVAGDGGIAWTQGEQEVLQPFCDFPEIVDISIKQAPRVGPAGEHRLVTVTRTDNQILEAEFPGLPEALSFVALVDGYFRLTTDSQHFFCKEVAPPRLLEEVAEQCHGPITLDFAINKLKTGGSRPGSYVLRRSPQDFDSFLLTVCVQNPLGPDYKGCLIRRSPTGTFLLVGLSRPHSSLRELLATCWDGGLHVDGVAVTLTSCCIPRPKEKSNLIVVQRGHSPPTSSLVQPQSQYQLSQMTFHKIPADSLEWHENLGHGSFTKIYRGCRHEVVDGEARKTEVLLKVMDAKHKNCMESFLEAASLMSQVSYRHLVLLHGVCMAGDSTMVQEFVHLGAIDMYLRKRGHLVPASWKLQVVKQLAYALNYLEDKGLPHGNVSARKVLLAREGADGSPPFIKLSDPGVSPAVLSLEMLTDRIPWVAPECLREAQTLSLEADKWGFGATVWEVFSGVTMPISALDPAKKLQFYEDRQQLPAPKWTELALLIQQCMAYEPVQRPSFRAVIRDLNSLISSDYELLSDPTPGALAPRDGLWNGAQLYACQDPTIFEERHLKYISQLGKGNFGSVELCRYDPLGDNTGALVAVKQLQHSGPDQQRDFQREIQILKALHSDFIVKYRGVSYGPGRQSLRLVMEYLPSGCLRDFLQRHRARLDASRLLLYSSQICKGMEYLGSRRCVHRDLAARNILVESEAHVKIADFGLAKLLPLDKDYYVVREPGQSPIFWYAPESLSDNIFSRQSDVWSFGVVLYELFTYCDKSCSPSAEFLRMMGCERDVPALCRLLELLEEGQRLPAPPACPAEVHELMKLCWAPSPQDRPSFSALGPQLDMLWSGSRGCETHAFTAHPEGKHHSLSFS
Put plainly: JAK tyrosine kinase inhibitory activity in the presence of 1 mM ATP (ELISA), JAK3. It is filed as biochemical. Put shortly:
as §1

The target in another assay is T3, JAK1 (Homo sapiens, UniProt P23458).
T3 construct: purchased Carna Biosciences, Inc
T3 sequence (P23458 whole entry): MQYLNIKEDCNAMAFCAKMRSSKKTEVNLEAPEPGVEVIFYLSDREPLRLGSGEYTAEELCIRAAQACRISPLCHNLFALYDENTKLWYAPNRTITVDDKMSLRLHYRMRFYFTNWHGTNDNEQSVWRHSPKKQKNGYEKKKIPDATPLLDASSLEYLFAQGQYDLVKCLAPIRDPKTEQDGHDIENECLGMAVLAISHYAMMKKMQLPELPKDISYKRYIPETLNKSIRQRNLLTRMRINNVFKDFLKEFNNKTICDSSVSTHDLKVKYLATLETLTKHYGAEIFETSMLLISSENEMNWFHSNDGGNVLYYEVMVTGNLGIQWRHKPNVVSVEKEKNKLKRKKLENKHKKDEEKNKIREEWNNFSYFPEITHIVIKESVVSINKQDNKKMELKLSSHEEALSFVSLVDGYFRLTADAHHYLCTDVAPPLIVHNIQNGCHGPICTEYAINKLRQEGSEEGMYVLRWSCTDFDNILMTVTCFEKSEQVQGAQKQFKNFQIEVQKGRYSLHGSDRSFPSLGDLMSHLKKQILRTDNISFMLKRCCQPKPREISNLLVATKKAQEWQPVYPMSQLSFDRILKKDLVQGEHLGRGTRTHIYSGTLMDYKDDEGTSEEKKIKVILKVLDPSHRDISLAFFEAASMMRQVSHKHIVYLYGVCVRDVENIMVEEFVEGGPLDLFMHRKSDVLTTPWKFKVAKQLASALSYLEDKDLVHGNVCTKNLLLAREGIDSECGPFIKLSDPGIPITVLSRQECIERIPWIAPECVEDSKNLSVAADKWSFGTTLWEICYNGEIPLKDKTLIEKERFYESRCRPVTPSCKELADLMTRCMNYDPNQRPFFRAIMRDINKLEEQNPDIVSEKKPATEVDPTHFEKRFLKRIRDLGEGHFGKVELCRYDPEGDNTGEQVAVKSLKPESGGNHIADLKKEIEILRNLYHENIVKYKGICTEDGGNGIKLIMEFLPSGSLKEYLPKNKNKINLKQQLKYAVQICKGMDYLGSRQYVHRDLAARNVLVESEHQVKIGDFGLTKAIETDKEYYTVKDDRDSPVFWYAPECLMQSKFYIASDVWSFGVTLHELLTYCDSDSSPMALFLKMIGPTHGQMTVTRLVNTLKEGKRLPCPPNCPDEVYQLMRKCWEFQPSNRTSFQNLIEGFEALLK
Put plainly: JAK tyrosine kinase inhibitory activity in the presence of 1 mM ATP (ELISA), JAK1. It is filed as biochemical. Put shortly: as §1

Assay [1] deals with Aspergillus-induced airway inflammation model. Put plainly: Inhibitory effect on Aspergillus-induced airway inflammation model. It is filed as in vivo. The note with it: mice; for inhibition in vivo at 10000 µg/mL, 100 mg/kg: Mus musculus, Eosinophil, po, 240 h, 10 mg/mL suspension at 10 mL/kg twice a day Day 0 to Day 9, BALF collected at Day 10, read-out: Inhibition rate on count of invasive eosinophil in BALF (%); for Inhibition rate on count of invasive eosinophil in BALF (%): oral, 10 mg/mL suspension at 10 mL/kg twice a day Day 0 to Day 9, BALF collected at Day 10. As for the experimental part: Aspergillus fumigatus extracts (Greer laboratories, Inc.) were adjusted to 400 μg/mL with PBS. The Aspergillus fumigatus solutions thus prepared were administered to mice as nasal drops (50 μL) on Day 0, Day 1, Day 7 and Day 8. The nasal drop was administered one hour after the administration of test compounds in the morning. The test compound was administered twice a day in the morning and evening of Day 0 to Day 9. The test compound was suspended in 0.5% methylcellulose at 10 mg/mL, and orally administered at the dosage of 10 mL/kg. The bronchoalveolar lavage fluid (BALF) was collected at Day 10, and the total white blood cell count in BALF was measured using Celltac (NIHON KOHDEN). The ratio of eosinophil in total white blood cell was calculated using ADVIA 120 (Siemens Healthcare Diagnostics), and the ratio was multiplied by the total white blood cell count to determine the eosinophil count in BALF. The inhibition rate of the test compound was determined, assuming the inhibitory ratio in the treatment with Aspergillus fumigatus extract and 0.5% methylcellulose as 0% and the inhibitory ratio in the treatment without Aspergillus fumigatus extract but with 0.5% methylcellulose as 100%.

The structures appear in SMILES notation. Structures can show the parent of a compound that is named as a salt.

T1 sequence (O60674 whole entry): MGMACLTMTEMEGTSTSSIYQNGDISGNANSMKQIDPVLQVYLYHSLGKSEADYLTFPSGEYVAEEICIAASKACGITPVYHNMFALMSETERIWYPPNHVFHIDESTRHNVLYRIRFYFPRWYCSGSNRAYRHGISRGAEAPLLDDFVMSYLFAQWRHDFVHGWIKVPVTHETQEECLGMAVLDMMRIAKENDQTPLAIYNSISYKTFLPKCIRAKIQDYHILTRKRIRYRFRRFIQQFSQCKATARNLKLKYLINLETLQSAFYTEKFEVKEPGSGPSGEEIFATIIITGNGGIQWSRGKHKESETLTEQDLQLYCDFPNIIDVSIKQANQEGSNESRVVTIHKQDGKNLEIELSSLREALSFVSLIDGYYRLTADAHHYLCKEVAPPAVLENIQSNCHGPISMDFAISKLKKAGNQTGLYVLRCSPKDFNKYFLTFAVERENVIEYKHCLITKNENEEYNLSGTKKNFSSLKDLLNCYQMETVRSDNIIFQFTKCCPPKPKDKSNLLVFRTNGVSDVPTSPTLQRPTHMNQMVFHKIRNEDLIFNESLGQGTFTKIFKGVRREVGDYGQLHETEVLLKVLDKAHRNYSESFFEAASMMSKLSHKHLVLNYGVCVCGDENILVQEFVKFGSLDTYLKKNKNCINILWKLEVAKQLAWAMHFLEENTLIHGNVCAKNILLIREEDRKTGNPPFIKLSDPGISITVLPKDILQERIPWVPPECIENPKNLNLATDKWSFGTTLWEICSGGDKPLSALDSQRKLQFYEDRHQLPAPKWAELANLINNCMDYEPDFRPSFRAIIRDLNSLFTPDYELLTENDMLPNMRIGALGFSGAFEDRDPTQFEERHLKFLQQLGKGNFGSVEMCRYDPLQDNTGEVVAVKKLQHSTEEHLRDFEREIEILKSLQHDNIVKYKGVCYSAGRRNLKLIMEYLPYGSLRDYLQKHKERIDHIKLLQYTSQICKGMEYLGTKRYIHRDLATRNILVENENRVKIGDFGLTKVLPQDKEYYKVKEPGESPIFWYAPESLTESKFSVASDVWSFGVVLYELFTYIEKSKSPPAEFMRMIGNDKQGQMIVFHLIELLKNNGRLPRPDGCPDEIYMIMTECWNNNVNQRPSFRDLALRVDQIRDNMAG

With `CCOC(=O)NC1CCN(C(=O)c2cc(N[C@@H](C)C3CC3)nc(-c3cnn4ccsc34)n2)CC1` [Example 28, Ethyl (1-{[6-{[(1S)-1-cyclopropylethyl]amino}-2-(pyrazolo[5,1-b][1,3]thiazol-7-yl)pyrimidin-4-yl]carbonyl}piperidin-4-yl)carbamate], the IC50 at JAK2 is 2100 nM; on JAK3, above 10000 nM; on JAK1 it was 120 nM. The inhibition in vivo at 10000 µg/mL, 100 mg/kg in assay [1] is 52%.

On to `C[C@@H](C1CC1)N(C)c1cc(C(=O)N2CCC(NC(=O)C3CC3)CC2)nc(-c2cnn3ccsc23)n1` [Example 33, N-(1-{[6-{[(1S)-1-Cyclopropylethyl](methyl)amino}-2-(pyrazolo[5,1-b][1,3]thiazol-7-yl)pyrimidin-4-yl]carbonyl}piperidin-4-yl)cyclopropanecarboxamide hydrochloride], for which the results for the IC50 at JAK2, on JAK3 and at JAK1 were 1700 nM, 1700 nM and 130 nM, respectively. For the same molecule, the inhibition in vivo at 10000 µg/mL, 100 mg/kg in assay [1] amounted to 37%.

On to `CC(C)OC(=O)NC1CCN(C(=O)c2cc(N[C@@H](C)C3CC3)nc(-c3cnn4ccsc34)n2)CC1` [Example 41, Propan-2-yl (1-{[6-{[(1S)-1-cyclopropylethyl]amino}-2-(pyrazolo[5,1-b][1,3]thiazol-7-yl)pyrimidin-4-yl]carbonyl}piperidin-4-yl)carbamate], for which the half-maximal inhibitory concentration (IC50) is 2700 nM on JAK2, above 10000 nM on JAK3 and 96 nM at JAK1. Moreover, in assay [1], the inhibition in vivo at 10000 µg/mL, 100 mg/kg was 51%.

As for `CC(C)(C)Nc1cc(C(=O)N2CCC(O)CC2)nc(-c2cnn3ccsc23)n1` [Example 58, [6-(tert-Butylamino)-2-(pyrazolo[5,1-b][1,3]thiazol-7-yl)pyrimidin-4-yl](4-hydroxypiperidin-1-yl)methanone], the IC50 is 2900 nM on JAK2, above 10000 nM at JAK3 and 400 nM on JAK1. For the same molecule, the inhibition in vivo at 10000 µg/mL, 100 mg/kg in assay [1] was found to be 37%.

In the case of `C[C@@H](Nc1cc(C(=O)N2CCC(O)CC2)nc(-c2cnn3ccsc23)n1)C(C)(C)C` [Example 62, [6-{[(2R)-3,3-Dimethylbutan-2-yl]amino}-2-(pyrazolo[5,1-b][1,3]thiazol-7-yl)pyrimidin 4 yl](4-hydroxypiperidin-1-yl)methanone hydrochloride], the figures for the IC50 on JAK2, on JAK3 and at JAK1 were 1000 nM, 1100 nM and 10 nM, respectively. The inhibition in vivo at 10000 µg/mL, 100 mg/kg in assay [1] came out at 36%.

For the molecule `CCOC(=O)NC1CCN(C(=O)c2cc(N[C@H](C)C3CC3)nc(-c3cnn4ccsc34)n2)CC1` [Example 73, Ethyl (1-{[6-{[(1R)-1-cyclopropylethyl]amino}-2-(pyrazolo[5,1-b][1,3]thiazol-7-yl)pyrimidin-4-yl]carbonyl}piperidin-4-yl)carbamate], the IC50 was determined as 3200 nM at JAK2, 2200 nM at JAK3 and 73 nM at JAK1. In assay [1], the “Inhibition rate on count of invasive eosinophil in BALF (%)” value is reported as 64%.

In the case of `CCOC(=O)NC1CCN(C(=O)c2cc(N[C@H](C)C3CC3)nc(-c3cnn4ccsc34)n2)CC1` [Example 74, Ethyl (1-{[6-{[(1R)-1-cycloproropylethyl]amino}-2-(pyrazolo[5,1-b][1,3]thiazol-7-yl)pyrimidin-4-yl]carbonyl}piperidin-4-yl)carbamate hydrochloride], the IC50 on JAK2 was 3100 nM; at JAK3, 2600 nM; at JAK1 it was 95 nM. Further, the “Inhibition rate on count of invasive eosinophil in BALF (%)” value in assay [1] (hydrochloride) was found to be 34%.

For `CCC(CC)Nc1cc(C(=O)N2CCC(O)CC2)nc(-c2cnn3ccsc23)n1` [Example 81, (4-Hydroxypiperidin-1-yl) [6-(pentan-3-ylamino)-2-(pyrazolo[5,1-b][1,3]thiazol-7-yl)pyrimidin-4-yl]methanone hydrochloride], the IC50 was 2200 nM at JAK2, 3300 nM at JAK3 and 1600 nM on JAK1. In addition, the inhibition in vivo at 10000 µg/mL, 100 mg/kg in assay [1] is 43%.

Consider `COC(=O)NC1CCN(C(=O)c2cc(NCC(C)(C)C)nc(-c3cnn4ccsc34)n2)CC1` [Example 87, Methyl [1-({6-[(2,2-dimethylpropyl)amino]-2-(pyrazolo[5,1-b][1,3]thiazol-7-yl)pyrimidin-4-yl}carbonyl)piperidin-4-yl]carbamate hydrochloride], for which the IC50 was 1600 nM at JAK2, 9500 nM on JAK3 and 250 nM at JAK1. In addition, the inhibition in vivo at 10000 µg/mL, 100 mg/kg in assay [1] was determined as 24%.

Turning to `C[C@@H](Nc1cc(C(=O)N2CCC(NC(=O)OCC(F)F)CC2)nc(-c2cnn3ccsc23)n1)C1CC1` [Example 96, 2,2-Difluoroethyl (1-{[6-{[(1R)-1-cyclopropylethyl]amino}-2-(pyrazolo[5,1-b][1,3]thiazol-7-yl)pyrimidin-4-yl]carbonyl}piperidin-4-yl)carbamate hydrochloride], the results for the IC50 at JAK2, on JAK3 and at JAK1 were 1000 nM, 2200 nM and 250 nM, respectively. For the same molecule, the inhibition in vivo at 10000 µg/mL, 100 mg/kg in assay [1] is 51%.

As for `C[C@@H](Nc1cc(C(=O)N2CCC(NC(=O)OCC(F)F)CC2)nc(-c2cnn3ccsc23)n1)C(C)(C)C` [Example 97, 2,2-Difluoroethyl (1-{[6-{[(2R)-3,3-dimethylbutan-2-yl]amino}-2-(pyrazolo[5,1-b][1,3]thiazol-7-yl)pyrimidin-4-yl]carbonyl}piperidin-4-yl)carbamate hydrochloride], the IC50 on JAK2 was 1300 nM; on JAK3, 2700 nM; on JAK1, 210 nM. Further, the inhibition in vivo at 10000 µg/mL, 100 mg/kg in assay [1] came out at 43%.

With `CC[C@H](C)Nc1cc(C(=O)N2CCC(NC(=O)OC)CC2)nc(-c2cnn3ccsc23)n1` [Example 125, Methyl [1-({6-[(2S)-butan-2-ylamino]-2-(pyrazolo[5,1-b][1,3]thiazol-7-yl)pyrimidin-4-yl}carbonyl)piperidin-4-yl]carbamate hydrochloride], the IC50 at JAK2 was 4700 nM; on JAK3, above 10000 nM; on JAK1 it was 210 nM. In addition, the inhibition in vivo at 10000 µg/mL, 100 mg/kg in assay [1] turned out to be 35%.

Turning to `CC[C@@H](C)Nc1cc(C(=O)N2CCC(NC(=O)OC)CC2)nc(-c2cnn3ccsc23)n1` [Example 126, Methyl [1-({6-[(2R)-butan-2-ylamino]-2-(pyrazolo[5,1-b][1,3]thiazol-7-yl)pyrimidin-4-yl}carbonyl)piperidin-4-yl]carbamate], the IC50 at JAK2 is above 10000 nM; at JAK3, above 10000 nM; at JAK1 it was 820 nM. In assay [1], the inhibition in vivo at 10000 µg/mL, 100 mg/kg worked out at 57%.

The IC50 is the concentration that gives 50% inhibition.
